Test results: patent publication US8993622B2, “Antiviral compounds” (Eirium AB, priority 2010, dated 2015)

How the values were obtained:
[1] = Toxicity in the A549 cell system (XTT assay); assay type: cell-based; conditions: human, A549 cells, read-out: 50% cytotoxic concentration (CC50)
Experimental: FIG. 3. Titration of the effect of A02 on Ad5, Ad11p and the toxic effect in A549 cells following 24 h incubation with virus and/or compound A02. […] IC50 is the concentration at which the Ad replication is inhibited by 50% as determined by qPCR and CC50 is the concentration at which the cytotoxicity is 50%, i.e. 50% of the cells are viable, as determined by the XTT assay. Error bars represent the standard deviation of the means from three independent duplicate experiments.

Ad4 (E) = test: Quantitative real-time PCR of adenovirus DNA replication in A549 cells (Ad4); assay type: cell-based; conditions: Human adenovirus sp., read-out: % inhibition of DNA replication (SD)
Experimental: Approximately 1×10^5 A549 cells were seeded in 24-well plates (Nunc) on the day before infection. On the day of infection, the cells in one well were counted to establish the amount of virions to be added. The growth medium was removed and compound and virus were added simultaneously to the cells in 700 μl DMEM with 0.75 g/l NaHCO3, 20 mM HEPES, 1×PEST, and 1% FBS. Compounds were added in concentrations ranging from 0.5 μM to 15 μM. The final concentration of DMSO was less than 1% in all samples. One pg of Ad virions was added per cell. The plate was incubated at 37° C. in 5% CO2 and 24 h after infection the cells were harvested, washed once, and resuspended in PBS. […] The design of primers and probes for analysis of various Ad types representing different adenovirus species with quantitative PCR has been described previously (Allard et al. 2001. Rapid typing of human adenoviruses by a general PCR combined with restriction endonuclease analysis. Journal Clinical Microbiology 39:498-505). Briefly, quantitative real-time PCR was carried out using a degenerate primer pair, Kadgen1 (forward)—Kadgen 2 (reverse) (5′-CWT ACA TGC ACA TCK CSG G-3′—SEQ ID NO:1, and 5′-CRC GGG CRA AYT GCA CCA G-3′—SEQ ID NO:2, respectively); DNA technology A/S, Aarhus, Denmark). […] Real-time PCR was performed in an ABI PRISM 7700 Sequence Detector (Applied Biosystems) and analyzed with Sequence Detector v1.7a software.

cells = test: Cellular toxicity of select compounds (% dead cells, CC50); assay type: cell-based; conditions: 24 h
[2] = tested on: Ad5 binding to A549 cells; test: Binding of 35S-labelled Ad5 virions to A549 cells; assay type: cell-based, human adenovirus; conditions: 15 μM
Experimental: A549 cells were washed twice and detached from the culture flask with 0.05% EDTA in PBS, resuspended in culture medium, and allowed to recover for 1 h at 37° C. The cell suspension was centrifuged at room temperature at 450 g for 5 min and resuspended in PBS containing 1% FBS and 0.01% NaN3 (PBS-FBS-NaN3); 200,000 cells per well were dispensed in a 96-well microtiter plate (Nunc). The plate was placed on ice and the compound was added to final concentrations of 5 μM and 15 μM. The final concentration of DMSO was less than 1% in all samples. Five pg […] Ad5 virions (with labeling done as described previously by Segerman et al. 2003 (Journal of Virology 77:1157-1162)) were added per cell and the plate was incubated on ice on a rocking platform for 1 h. Following incubation the cells were washed three times with PBS-FBS-NaN3, pelleted by centrifugation at 800 g for 5 min at 4° C. and resuspended in 100 μl PBS. The suspension was transferred to scintillation tubes containing 2 ml scintillation liquid (Wallac OptiPhase HiSafe 3, PerkinElmer) and cell-associated radioactivity was measured as counts per minute (cpm) using a liquid scintillation counter (Wallac 1409).

O=C(Nc1ccccc1C(=O)Nc1ccccc1C(=O)O)c1ccccc1 [Compound A02, 2-[[2-(Benzoylamino)benzoyl]amino]-benzoic acid]
CC50 at 24 h [1]: 199 µM
inhibition at 5 µM (Ad4 (E); 5 μM): 85%
inhibition at 15 µM (Ad4 (E); 15 μM): 96%
Toxicity at 30 μM (% dead cells after 24 h) (cells; 30 μM): 20 ± 7%
Toxicity at 60 μM (% dead cells after 24 h) (cells; 60 μM): 29 ± 3%
effect on Ad5 binding to the surface of A549 cells [2]: no effect
